Reference: patent US20230355749A1, “Immunomodulatory Compounds And Use Thereof For The Treatment And/Or Prevention Of Infectious Diseases” (AC […], priority 2020, published 2023)
Where a name gives a salt, the structure may show the parent alone.

Tests used:
LPS-matured BMDC = conditions: DC matured with 100 ng/ml LPS 36 h; pretreated 1 hour, Eα55-68 pulse 3 hours, analyzed after 24 hours; live CD11c+MHC-II(I-Ab) high; vehicle 1553.33±54.93, p=0.03
Source text: Specifically, these complexes were recognized using fluorochrome-labelled monoclonal antibodies of Y-Ae for I-Ab: Eα55-68 complexes and 25-D1.16 for H2-Kb: OVA257-264 complexes. In all experiments, BMDC were differentiated in vitro from bone marrow precursor cells of C57BL/6 mice using GM-CSF and IL-4 at 250 and 5 UI/ml, respectively.

[1] = tested on: Bone-marrow derived dendritic cells (BMDC); assay: Co-stimulatory marker and MHC surface expression by FACS in BMDC stimulated with LPS and OVA257-264 peptide; format: cell-based, C57BL/6 mice; conditions: pre-treated 1 hour, then LPS 100 ng/ml + OVA257-264 peptide 10 μM for 24 hours; live CD11c+ population
Method: (§1) Cells were analysed for expression of co-stimulatory markers and MHC complexes at the cell surface by FACS, gated on the live CD11c+ population. Panel A) Median fluorescence intensity ([…]) of CD40, CD80 and CD86 expression. Panel B) Overall expression of MHC-II, given by the expression of I-Ab. Panel C) Relative surface expression of MHC-I (H2-Kb): OVA257-264 peptide complexes over the total surface expression of H2-Kb. Panel D) Quantification of cytokine secretion by ELISA. Data is expressed as the mean+/−standard error of the mean (SEM). Statistical significance was determined by a student's t-test with *p≤0.05.
(§2) LPS (100 ng/ml) was used in this instance as a model Toll-like Receptor ligand for a pathogen and a surrogate for the licensed TLR-specific adjuvant-MPLA.

[2] = tested on: Bone-marrow derived dendritic cells (BMDC); assay: Cytokine secretion by ELISA in BMDC stimulated with LPS and OVA257-264 peptide; format: cell-based, C57BL/6 mice; conditions: LPS 100 ng/ml + OVA257-264 peptide 10 μM, after 24 hours
Method: as §1, §2

[3] = tested on: immature DC (CD11c+MHC-II int); assay: Endocytosis (uptake) of OVA-AF647 protein by immature DC; format: cell-based, C57BL/6 mice; conditions: pretreated 3 hours (ACB1801s 20 μM), OVA-AF647 2 μg/ml; for percentage of OVA-AF647+ cells: 3 mice, vehicle 71.00+/−0.058; for Median Fluorescence Intensity of OVA-AF647 within the positive population (amount of protein taken up): vehicle 5533.33+/−60.26, P≤0.0001

Row | Compound | Median Fluorescence Intensity (MFI) of I-Ab: Eα55-68 specific complexes (LPS-matured BMDC) | expression of CD80/CD86 co-stimulatory markers [1] | overall expression of surface MHC-II (I-Ab) [1] | levels of pro-inflammatory cytokines (IL-6, and TNF) [2] | percentage of OVA-AF647+ cells [3] | Median Fluorescence Intensity of OVA-AF647 within the positive population (amount of protein taken up) [3]
1 | COc1ccc2c(c1)[nH]c1c(C)nccc12.Cl [ACB1801s, harmine HCl] | 1742.33±15.62 | increased | increased | reduced | 72.37+/−0.94 | 6725.67+/−41.450
2 | Cc1[nH]ccc2c1[nH]c1cc(=O)ccc12 [ACB1804s, harmol HCl] |  |  |  |  | 73.867+/−0.751 | 6628+/−98.475
